# Measurements published in ChEMBL document CHEMBL3885881, “DrugMatrix”.
# Species: Rattus norvegicus
# Assay type: toxicity, organism-based, Sprague-Dawley
# Conditions: in vivo, po, route oral GAVAGE, vehicle 100 % SALINE; for ABSOLUTE EOSINOPHIL / ABSOLUTE LYMPHOCYTE / ABSOLUTE MONOCYTE / ABSOLUTE SEGMENTED NEUTROPHIL / BASOPHIL / EOSINOPHIL / ERYTHROCYTE COUNT / HEMATOCRIT / HEMOGLOBIN / LEUKOCYTE COUNT / LYMPHOCYTE / MEAN CORPUSCULAR HEMOGLOBIN / MEAN CORPUSCULAR HEMOGLOBIN CONCENTRATION / MEAN CORPUSCULAR VOLUME / MONOCYTE / NEUTROPHIL / NUCLEATED RED BLOOD CELLS / PLATELET COUNT: tissue Blood; for ALANINE AMINOTRANSFERASE / ALBUMIN / ALKALINE PHOSPHATASE / ASPARTATE AMINOTRANSFERASE / BLOOD UREA NITROGEN / CARBON DIOXIDE / CHLORIDE / CHOLESTEROL / CREATINE PHOSPHOKINASE / CREATININE / GLUCOSE / LACTATE DEHYDROGENASE / LIPASE / PHOSPHORUS / POTASSIUM / SODIUM / TOTAL BILIRUBIN / TOTAL PROTEIN / URIC ACID: tissue Plasma
# [1] = 0 mg/kg, 6 h, dose level Control, time 0.25 day
# [2] = 0 mg/kg, 24 h, dose level Control, time 1 day
# [3] = 3000 mg/kg, 6 h, dose level Low, time 0.25 day
# Description: DrugMatrix - Regimen: Single
smiles,measurement,setting,value
CCO [ALCOHOL],ABSOLUTE EOSINOPHIL,[1],24 CELLS/uL
same,ABSOLUTE LYMPHOCYTE,[1],11958.17 CELLS/uL
same,ABSOLUTE MONOCYTE,[1],398.83 CELLS/uL
same,ABSOLUTE SEGMENTED NEUTROPHIL,[1],1252.33 CELLS/uL
same,BASOPHIL,[1],0%
same,EOSINOPHIL,[1],0.17%
same,ERYTHROCYTE COUNT,[1],5.37 x10E6/uL
same,HEMATOCRIT,[1],35.6%
same,HEMOGLOBIN,[1],13.05 G/DL
same,LEUKOCYTE COUNT,[1],13.63 x10E3/uL
same,LYMPHOCYTE,[1],87.67%
same,MEAN CORPUSCULAR HEMOGLOBIN,[1],24.28 pg
same,MEAN CORPUSCULAR HEMOGLOBIN CONCENTRATION,[1],36.67 G/DL
same,MEAN CORPUSCULAR VOLUME,[1],66.28 fL
same,MONOCYTE,[1],2.83%
same,NEUTROPHIL,[1],9.33%
same,NUCLEATED RED BLOOD CELLS,[1],0 /100WBC
same,PLATELET COUNT,[1],947.83 x10E3/uL
same,ALANINE AMINOTRANSFERASE,[1],51 u/L
same,ALBUMIN,[1],4.02 G/DL
same,ALKALINE PHOSPHATASE,[1],312.33 u/L
same,ASPARTATE AMINOTRANSFERASE,[1],98.17 u/L
same,BLOOD UREA NITROGEN,[1],9.5 mg/dL
same,CARBON DIOXIDE,[1],18.83 mmol/L
same,CHLORIDE,[1],103.5 MEQ/L
same,CHOLESTEROL,[1],69.5 mg/dL
same,CREATINE PHOSPHOKINASE,[1],580.17 u/L
same,CREATININE,[1],0.53 mg/dL
same,GLUCOSE,[1],175.67 mg/dL
same,LACTATE DEHYDROGENASE,[1],295.5 u/L
same,LIPASE,[1],8.17 u/L
same,PHOSPHORUS,[1],14.12 mg/dL
same,POTASSIUM,[1],5.77 MEQ/L
same,SODIUM,[1],144.13 MEQ/L
same,TOTAL BILIRUBIN,[1],0.12 mg/dL
same,TOTAL PROTEIN,[1],4.87 G/DL
same,URIC ACID,[1],2.25 mg/dL
same,ABSOLUTE EOSINOPHIL,[2],0 CELLS/uL
same,ABSOLUTE LYMPHOCYTE,[2],12232.83 CELLS/uL
same,ABSOLUTE MONOCYTE,[2],20.33 CELLS/uL
same,ABSOLUTE SEGMENTED NEUTROPHIL,[2],780.17 CELLS/uL
same,BASOPHIL,[2],0%
same,EOSINOPHIL,[2],0%
same,ERYTHROCYTE COUNT,[2],5.18 x10E6/uL
same,HEMATOCRIT,[2],33.48%
same,HEMOGLOBIN,[2],13.22 G/DL
same,LEUKOCYTE COUNT,[2],13.03 x10E3/uL
same,LYMPHOCYTE,[2],93.33%
same,MEAN CORPUSCULAR HEMOGLOBIN,[2],25.57 pg
same,MEAN CORPUSCULAR HEMOGLOBIN CONCENTRATION,[2],39.52 G/DL
same,MEAN CORPUSCULAR VOLUME,[2],64.65 fL
same,MONOCYTE,[2],0.17%
same,NEUTROPHIL,[2],6.5%
same,NUCLEATED RED BLOOD CELLS,[2],0 /100WBC
same,PLATELET COUNT,[2],931.5 x10E3/uL
same,ALANINE AMINOTRANSFERASE,[2],60.83 u/L
same,ALBUMIN,[2],4.18 G/DL
same,ALKALINE PHOSPHATASE,[2],283.33 u/L
same,ASPARTATE AMINOTRANSFERASE,[2],80.5 u/L
same,BLOOD UREA NITROGEN,[2],11.83 mg/dL
same,CARBON DIOXIDE,[2],35.33 mmol/L
same,CHLORIDE,[2],98.5 MEQ/L
same,CHOLESTEROL,[2],80 mg/dL
same,CREATINE PHOSPHOKINASE,[2],181.83 u/L
same,CREATININE,[2],0.2 mg/dL
same,GLUCOSE,[2],142.67 mg/dL
same,LACTATE DEHYDROGENASE,[2],65.5 u/L
same,LIPASE,[2],9.83 u/L
same,PHOSPHORUS,[2],9.82 mg/dL
same,POTASSIUM,[2],5.69 MEQ/L
same,SODIUM,[2],143.35 MEQ/L
same,TOTAL BILIRUBIN,[2],0.15 mg/dL
same,TOTAL PROTEIN,[2],6.2 G/DL
same,URIC ACID,[2],0.42 mg/dL
same,ABSOLUTE EOSINOPHIL,[3],17.33 CELLS/uL
same,ABSOLUTE LYMPHOCYTE,[3],12297.17 CELLS/uL
same,ABSOLUTE MONOCYTE,[3],395.33 CELLS/uL
same,ABSOLUTE SEGMENTED NEUTROPHIL,[3],1356.83 CELLS/uL
same,BASOPHIL,[3],0%
same,EOSINOPHIL,[3],0.17%
same,ERYTHROCYTE COUNT,[3],5.49 x10E6/uL
same,HEMATOCRIT,[3],36.33%
same,HEMOGLOBIN,[3],13.27 G/DL
same,LEUKOCYTE COUNT,[3],14.07 x10E3/uL
same,LYMPHOCYTE,[3],87%
same,MEAN CORPUSCULAR HEMOGLOBIN,[3],24.23 pg
same,MEAN CORPUSCULAR HEMOGLOBIN CONCENTRATION,[3],36.55 G/DL
same,MEAN CORPUSCULAR VOLUME,[3],66.38 fL
same,MONOCYTE,[3],2.67%
same,NEUTROPHIL,[3],10.17%
same,NUCLEATED RED BLOOD CELLS,[3],0 /100WBC
same,PLATELET COUNT,[3],1109.83 x10E3/uL
same,ALANINE AMINOTRANSFERASE,[3],45.5 u/L
same,ALBUMIN,[3],4.27 G/DL
same,ALKALINE PHOSPHATASE,[3],279.17 u/L
same,ASPARTATE AMINOTRANSFERASE,[3],96.17 u/L
same,BLOOD UREA NITROGEN,[3],11 mg/dL
same,CARBON DIOXIDE,[3],19.5 mmol/L
same,CHLORIDE,[3],105.33 MEQ/L
same,CHOLESTEROL,[3],63.33 mg/dL
same,CREATINE PHOSPHOKINASE,[3],339.67 u/L
same,CREATININE,[3],0.17 mg/dL
same,GLUCOSE,[3],173 mg/dL
same,LACTATE DEHYDROGENASE,[3],354.67 u/L
same,LIPASE,[3],10 u/L
same,PHOSPHORUS,[3],15.83 mg/dL
same,POTASSIUM,[3],6.29 MEQ/L
same,SODIUM,[3],146.3 MEQ/L
same,TOTAL BILIRUBIN,[3],0.0667 mg/dL
same,TOTAL PROTEIN,[3],5.62 G/DL
same,URIC ACID,[3],2.12 mg/dL
